One data set deals with MCF-7. The experiment in a line: MTT toxicity assay. The class given is cell-based, human. How it is done: (§1) Toxicity of gA-WT and gA-5 was tested against two human cancer cell lines, HeLa and MCF-7 (gifts from Professor Eranthie Weerapana at Boston College) by using the MTT assay as described in the protocol provided by Invitrogen.[5] HeLa cells (in DMEM high glucose media with 10% FBS, 1% Pen/Strep, 37° C., 5% CO2) and MCF-7 cells (in RPMI media with 10% FBS and 1% Pen/Strep, 37° C., 5% CO2) were grown to about 80% confluent before removed from the surface of a 20 cm petri-dish with […] with EDTA (3-5 mins, 37° C., 5% CO2). Cells were pelleted (3,500 rpm, 5 mins at 4° C.), and plated at 15,000 cells per well (100 μL per well), then incubated for 48 hrs before peptide addition.
(§2) Stock solutions of gA in DMSO with varied concentrations were prepared so that for each peptide concentration the total volume of DMSO addition was kept constant at 1% (v/v). For each peptide concentration, samples were set up as four replicates. Control wells were loaded with 1 μL of DMSO. After overnight incubation, cells were washed once with PBS before being incubated for 4 hrs with 110 μL of 12 mM 3-(4,5-Dimethylthiazol-2-yl)-2,5-diphenyltetrazolium bromide (MTT) dissolved in RPMI media. The MTT assay was quenched with 100 μL of 10% SDS in 0.01 M HCl and allowed to incubate overnight before absorbance at 570 nm was recorded. Wells were averaged and standard deviations determined for each peptide concentration. Data were normalized to the DMSO control to give % cell survival (see FIG. 3).
On the technique in general: Formazan colour is commonly taken as a measure of viable cells.

A further data set has as its system HeLa. The experiment in a line: MTT toxicity assay. The class given is cell-based, human. As to the method: as §1, §2
In data set [1] the test system is Staphylococcus aureus (ATCC 6538).
The conditions of data set [2]: Trp absorbance @ 280 nm; 10 mM PBS, pH 7.0, 1% DMSO; values taken from ref; cited from earlier work.
The nature of data set [3]: Tb3+ leakage from liposomes, lipid not specified. The class given is biochemical. As to conditions: at peptide concentrations causing complete K+ release; in words.
For data set [4], the system named is Bacillus subtilis (ATCC 663).
The nature of another data set: physchem. The class given is physicochemical. In short, it runs like this: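 Peptide DMSO stock (6.0-8.0 mM) diluted 100-fold into 10 mM HEPES, pH 7.0, giving 1% DMSO; sonicated 30 min, centrifuged 14,000 rpm for 10 min. Supernatant concentration determined from tryptophan absorbance at 280 nm (ε=22760 M−1 cm-1).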
The test system of data set [5] is human red blood cells (hRBCs). The experiment in a line: K+ leakage from hRBCs (flame atomic emission). The class given is cell-based.
A short description of data set [6]: K+ leakage from liposomes. The class given is biochemical. As to conditions: FIG. 4B; in words. As to the method:
A chloroform solution containing 76 mg of POPC (for POPC LUVs) or a chloroform/meol (1/1) containing 38 mg of POPC and 38.5 mg POPG sodium salt (for POPC/POPG LUVs, POPC:POPG=1:1) was dried under reduced pressure to form a thin film, which was then […] with 2 mL aqueous buffer: (1) 10 mM HEPES, 150 mM KCl, pH 7.0 for K+ leakage assay; (2) 10 mM TES, 100 mM sodium citrate, 50 mM TbCl3, pH 7.0 for Tb3+ leakage assay; (3) 10 mM HEPES, 150 mM NaCl, pH 7.0 for peptide binding assay. After 20 cycles of freezing and thawing, the liposome suspension was extruded 21 times through a 100 nm polycarbonate membrane (LIPOSOFAST Mini Extrusion system, Avanti Polar Lipids; Whatman Nuclepore Track-Etch Membrane) at RT. Free K+ or Tb3+ were removed by gel filtration (ÄKTA FPLC with HIPREP™ 16/60 Sephacryl TM-S-500HR column) using Buffer A for (1) and (3) or Buffer B for (2) as the eluents. The lipid concentration was determined by the Stewart assay and the size of liposome was confirmed by Dynamic Light Scattering (DLS, DYNAPRO NANOSTAR, Wyatt, Santa Barbara, Calif.). After gel filtration the polydispersity of all liposome are below 20%.
The K+ leakage from liposomes was determined by a potassium ion selective electrode (K-ISE, Cole-Parmer, Vernon Hills, Ill.). […] Three minutes after each peptide addition, the K+ concentration was measured and reported as the K-ISE potential. […]

A short description of data set [7]: Peptide binding onto membranes (Trp fluorescence). As to conditions: negatively charged POPC/POPG vesicles; in words.
Data set [8] can be described thus: Proton leakage from EYPC vesicles (HPTS). As to conditions: peptide premixed with lipids; in words. In kind it is biochemical. As to the method:
To confirm that lack of binding causes loss of membrane activity, we decided to premix the peptides and lipids in organic solvent and then dried out the mixture before hydration. Then, the peptides would be trapped into the bound form upon vesicle formation. The peptides distribution was determined by monitoring Trp fluorescence and the channel activity was determined by monitoring the proton leakage from LUVs using a pH sensitive fluorescence dye HPTS. Peptides 10, 12, 14K and 10, 12, 14 M gA were chosen to mix with neutral lipids EYPC.

Values after ≈ are worked out from the molar mass of the structure shown. “Also recorded” adds a separate entry of the source. Like-named read-outs stand apart in the source and are kept apart here. Marks after values point to notes of the source that are not given here. Bounds are passed on as bounds.

For the molecule `CC(C)C[C@@H](NC(=O)[C@H](C)NC(=O)CNC(=O)[C@@H](NC=O)C(C)C)C(=O)N[C@@H](C)C(=O)N[C@@H](C(=O)N[C@H](C(=O)N[C@@H](C(=O)N[C@@H](Cc1c[nH]c2ccccc12)C(=O)N[C@H](CCCCN)C(=O)N[C@@H](Cc1c[nH]c2ccccc12)C(=O)N[C@H](CCCCN)C(=O)N[C@@H](Cc1c[nH]c2ccccc12)C(=O)N[C@H](CCCCN)C(=O)N[C@@H](Cc1c[nH]c2ccccc12)C(=O)NCCO)C(C)C)C(C)C)C(C)C` (racemic) [gA-5, formyl-V-G-A-dL-A-dV-V-dV-W-dK-W-dK-W-dK-W-NHCH2CH2OH], the “toxicity, cell survival (MTT)” value with MCF-7 and with HeLa was “essentially unaffected” throughout. The “MICs S. Aureus” value in data set [1] (ATCC 6538) is > 10 µM; in [1] (Table 2, standard micro-dilution), >10 ^[e] μM. Also, the “MIC relative to wild-type Gramicidin A” value in data set [1] (S. Aureus) is “much higher MIC”; in data set [4] (B. subtilis) it was “equivalent to or ˜2-fold higher”. The “Sat. Conc, Lys series” value in data set [2] was 72 µM. Besides, the “Tb3+ leakage from LUVs” value in [3] was “essentially no Tb3+ leakage; also recorded: little to no difference”. The “MICs B. Subtilius” value in [4] (ATCC 663) is 5 µM. Moreover, in data set [4] (B. subtilis, in words), the antibacterial activity entry is “highly potent”. Also, the “solubility compared with the wild type” value in “physchem” is given as “three orders of magnitude”. Further, the “water solubility, fold higher than wild-type Gramicidin A” value in “physchem” is ~1500 fold. For the same molecule, the solubility at 30 mins in “physchem” (pH 7) is ~100 µM (≈ 193 µg/mL). Also, the “KC50 (50% K+ ion leakage relative to 1% TritonX-100)” value in data set [5] is >100 µM. Moreover, the “peptide concentration for 50% K+ ion leakage, fold greater than wild-type Gramicidin A” value in [5] was “over 10^6 fold”. In addition, in [6], the “K+ leakage from negatively charged liposomes” value is “lack of K+ leakage”. For the same molecule, the “apparent dissociation constant (Kd) / binding” value in data set [7] was “dropped by a marginal four fold”. The “proton leakage from EYPC LUVs” value in [8] was “caused proton leakage”.

What is called solubility is the dissolved amount per volume that the medium holds.

Source of the values: patent US9243037B2, “Gramicidin a mutants that function as antibiotics with improved solubility and reduced toxicity” (Trustees of Boston College, priority 2011, dated 2016).
